Test results reported in patent publication US11013745B2, “Triazolopyrimidine, triazolopyridine compounds, and the composition thereof for treating PRC2-mediated diseases” (SHANGHAI INSTITUTE OF MATERIA MEDICA, CHINESE ACADEMY OF …, priority 2017, dated 2021).

How the values were obtained:
[1] = Liver microsomal stability (rat); format: in vitro ADME; settings: for Clearance rate in vivo Clint In Vivo Extpl / Intrinsic clearance rate in vivo Clint In Vitro / Liver clearance rate Clint Hep In Vivo Extpl / Metabolic bioavailability MF %: rat liver microsomes; for half-life: rat, liver microsomes, pH 7.4, rat liver microsomes, read-out: Half life T-half
Experimental: (§1) 1. JANUS and temperature control device was turned on. After being initialized, the pipes were flushed until there was no air bubble in the pipes.
(§2) 2. Preparation of buffers used for the experiment
(§3) Preparation of Tris pH 7.4 buffer (0.1 M): 12.12 g of Tris was dissolved in 1000 mL of H2O, the resulting solution was adjusted to pH 7.4 with 2N HCl, aliquoted at 50 mL per tube, and stored at −20° C.
(§4) Preparation of H2O/0.1% BSA buffer: 200 μL of 25% BSA was added to 50 mL of H2O.
(§5) Preparation of VIVID stock solution: 1 mg of VIVID was dissolved in 1 mL of acetonitrile, aliquoted at 50 μL per tube, and stored at −20° C.
(§6) Preparation of MgCl2 solution (100 mM): 1.016 g of MgCl2 was dissolved in 50 mL Tris pH 7.4 buffer, and aliquoted at 1 mL per tube, and stored at −20° C.
(§7) Preparation of NADPH solution (10 mM): 355 mg of NADPH was dissolved in 42.6 mL of Tris pH 7.4 buffer, aliquoted at 1.8 mL per tube, and stored at −20° C.
(§8) Preparation of Blank control: 7.937 mL of Tris, 163 μL of RLM, 450 μL of MgCl2 solution, 450 μL of NADPH solution and 9 mL of methanol were mixed uniformly, aliquoted at 1 mL per tube, and stored at −20° C.
(§9) 3. Preparation of Compound Working Solution
(§10) Dilution step 1:10 μL of compound stock solution was added to 90 μL of DMSO=1 mM stock solution.
(§11) Dilution step 2: 2 μL of 1 mM stock solution was added to 1 mL of H2O/0.1%6 BSA buffer=[…] working solution.
(§12) Dilution step 3: 245 μL of the working solution was added to a 96-well compound plate and added with 5 μL of VIVID stock solution.
(§13) The 96-well compound plate was shaken on a shaker for 5 min.
(§14) 4. The STM in the JANUS in the computer was open to run the EXCEL file, and the JANUS program was operated and run by following the instructions in the EXCEL file.
(§15) 5. After the JANUS program was finished, acetonitrile/water 50:50 (V/V) was added to column 20 of the 384-well black plate, and blank control was added to column 21 of the 384-well black plate.
(§16) 6. the plate (420 nm-465 nm) was read on a microplate reader to determine the VIVID fluorescence intensity.
(§17) 7. After the plate was sealed, shaken and centrifuged, the sample plate was subjected to the LC/MS instrument for sample analysis.
(§18) A profile of the logarithmic value of the remaining rate of the drug in the incubation system versus the incubation time was plotted, and the slope k was obtained by linear regression. The intrinsic clearance rate in vivo (Clint, mL/min/g) value, the clearance rate in vivo (Cl, mL)/min), liver clearance (Clhep, mL/min) and metabolic bioavailability (% MF) were predicted according to the following equations: […]

[2] = system: SU-DHL-4 cells; test: Growth inhibition of SU-DHL-4 cells in a long term (11 days), CellTiter-Glo; format: cell-based, Human; settings: Homo sapiens, 264 h; SU-DHL-4, 11 days; read-out: SU-DHL-4 (11 days) IC50
[3] = Liver microsomal stability (human); format: in vitro ADME; settings: for Clearance rate in vivo Clint In Vivo Extpl / Intrinsic clearance rate in vivo Clint In Vitro / Liver clearance rate Clint Hep In Vivo Extpl: human liver microsomes; for half-life / bioavailability: human, liver microsomes, pH 7.4, human liver microsomes; for half-life: read-out: Half life T-half; for bioavailability: read-out: Metabolic bioavailability MF %
Experimental: as §1, §2, §3, §4, §5, §6, §7, §8, §9, §10, §11, §12, §13, §14, §15, §16, §17, §18

[4] = system: Pfeiffer cells; test: Pfeiffer cell growth inhibition in a long term (11 days), CellTiter-Glo; format: cell-based, Human; settings: Homo sapiens, 264 h, 11 days, read-out: Experiment on Pfeiffer cell growth inhibition in a long term (11 days IC50)
Experimental: Pfeiffer cells in exponential growth phase were seeded in a 24-well plate with a cell density of 1*10E5 cells/mL. Cells were treated on the same day with the compounds at different concentrations. At day 4 and day 7 of compound treatment, fresh media and compounds were changed. After treated with the compounds for 11 days, cell viability was measured using CellTiter-Glo reagent (Promega Corporation). The data was analyzed using GraphPad Prism 5.0 software and GI50 values were obtained.

[5] = system: Pfeiffer cells; test: Growth inhibition of Pfeiffer cells in a long term (14 days), CellTiter-Glo; format: cell-based, Human; settings: Homo sapiens, 336 h, 14 days, read-out: Pfeiffer (14 days) IC50
Experimental: In a CO2 cell incubator (37° C., 5% CO2), Human diffuse large B-cell lymphoma (DLBCL) cell line, pfeiffer (obtained from ATCC, CRL-2632) were incubated with RPMI 1640 medium (Gibco, purchased from Life Technologies, 22400-089) containing 10% fetal bovine serum (Gibco, purchased from Life Technologies, 10099-141) and 1% antibiotics (penicillin and streptomycin, purchased from Life Technologies, 10378016). […] After seeding the cells, they were placed in a CO2 incubator and allowed to stand for 1 hour. In a 24-well plate containing cells, 2 μL of three-fold gradient of the compounds at 9 different concentrations or DMSO were added to each well, such that the final concentration of the compounds was 0.003-20 μM or 0.3-2000 nM, and the final concentration of DMSO was 0.2%. At day 4, day 7, and day 11 of compound treatment, the fresh medium and compounds were changed, and the cell density of the DMSO control well was diluted to 2*10E5 cells/mL. The cell dilution ratio for other compound wells was the same as that of the DMSO control well. Cell viability was determined by using CellTiter-Glo reagent (purchased from Promega Inc., G7572): cells treated with the compounds for 14 days were transferred to a white 384-well plate (OptiPlate-384, purchased from PerkinElmer, 6007299) at 40 μL/well, an equal volume of CellTiter-Glo reagent was further added. After incubating at room temperature for 10 min, the cold luminescence signal was detected with a multifunctional microplate reader EnVision (PerkinElmer) at a wavelength of 400 to 700 nm. Data were analyzed using GraphPad Prism 5.0 software, and IC50 values were obtained.

[6] = Liver microsomal stability (mouse); format: in vitro ADME; settings: for Clearance rate in vivo Clint In Vivo Extpl / Intrinsic clearance rate in vivo Clint In Vitro / Liver clearance rate Clint Hep In Vivo Extpl / Metabolic bioavailability MF %: mouse liver microsomes; for half-life: mouse, liver microsomes, pH 7.4, mouse liver microsomes, read-out: Half life T-half
[7] = system: Karpas-422 cells; test: Growth inhibition of Karpas-422 cells in a long term (11 days), CellTiter-Glo; format: cell-based, Human; settings: Homo sapiens, 264 h; Karpas-422, 11 days; read-out: Karpas-422 (11 days) IC50
[8] = biological target: PRC2 enzyme (Homo sapiens (Human), UniProt O75530); test: PRC2 enzyme activity, TR-FRET method; format: biochemical
Experimental: The TR-FRET method was used to measure the PRC2 enzyme activity. First, the enzyme was mixed with compounds at different concentrations and incubated for 30 min at room temperature. The biotin-labeled histone H3 peptide substrate and the cofactor S-adenosylmethionine (SAM) were added to initiate the enzymatic reaction. After reaction was performed at room temperature for 4 hour, Acceptor and Donor were added and incubated for half an hour. The multifunctional microplate reader EnVision (Perkin Elmer Inc.) was used to detect the fluorescence signal. Data were analyzed using GraphPad Prism 5.0 software, and IC50 values were obtained.

[9] = Oral pharmacokinetics in rats; format: in vivo; settings: male, SD, plasma, rat, intragastric, 3 mg/kg; for AUC(0-inf): extrapolated to infinity, read-out: AUCINF_obs; for MRT inf: read-out: Average residence time MRTINF_obs; for half-life: read-out: Half life T1/2 (converted); for Cmax: read-out: Peak concentration Cmax
Experimental: 1. Healthy male SD rats were used as test animals, EED226, […]-07 (3 mg/kg) were administered intragastrically, and the drug concentrations in rat plasma were determined by LC/MS/MS method at different time points after drug administration. The pharmacokinetic behavior of the compounds of the present invention in rats was studied, and the pharmacokinetic properties were evaluated. 2. The test animals were healthy adult male SD rats, with 3 rats in each group, purchased from Shanghai Xipuer-Bikai Laboratory Animal Limited Company. 3. Drug preparation: Compounds EED226, […] were dissolved in DMSO/0.5% HPMC (5/95, v/v) for preparation. The compound SL-ZYE-07 was dissolved in 0.5% HPMC (containing 0.5% Tween 80), vortexed, and sonicated to disperse the solid matter uniformly to obtain a pale white suspension. 4, Operation: EED226, […]-07 were administered to rats by intragastric administration (3 mg/kg), 45 μL of blood was taken through the femoral vein at 0.25, 0.5, 1, 2, 4, 8, 24 hour after administration, and centrifuged in a heparinized centrifuge tube for 5 min, and the plasma samples were separated for analysis. The contents of test compounds in rat plasma after intragastric administration of different compounds were determined by Liquid chromatography-mass spectrometry (LC-MS/MS).

Chain of PRC2 enzyme (O75530 whole entry): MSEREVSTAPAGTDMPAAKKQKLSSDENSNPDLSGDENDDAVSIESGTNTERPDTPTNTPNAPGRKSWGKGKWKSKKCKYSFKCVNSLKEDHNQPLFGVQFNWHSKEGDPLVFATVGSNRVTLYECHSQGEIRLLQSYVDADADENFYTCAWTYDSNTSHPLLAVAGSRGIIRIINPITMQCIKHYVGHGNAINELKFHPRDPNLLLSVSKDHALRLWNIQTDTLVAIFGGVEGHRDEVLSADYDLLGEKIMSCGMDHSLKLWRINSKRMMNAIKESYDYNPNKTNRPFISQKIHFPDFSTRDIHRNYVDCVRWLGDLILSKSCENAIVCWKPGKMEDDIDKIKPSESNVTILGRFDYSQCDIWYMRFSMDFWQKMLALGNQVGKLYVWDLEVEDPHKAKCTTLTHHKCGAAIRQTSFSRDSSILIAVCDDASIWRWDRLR
Chain of PRC2 enzyme (Q15910 whole entry partner): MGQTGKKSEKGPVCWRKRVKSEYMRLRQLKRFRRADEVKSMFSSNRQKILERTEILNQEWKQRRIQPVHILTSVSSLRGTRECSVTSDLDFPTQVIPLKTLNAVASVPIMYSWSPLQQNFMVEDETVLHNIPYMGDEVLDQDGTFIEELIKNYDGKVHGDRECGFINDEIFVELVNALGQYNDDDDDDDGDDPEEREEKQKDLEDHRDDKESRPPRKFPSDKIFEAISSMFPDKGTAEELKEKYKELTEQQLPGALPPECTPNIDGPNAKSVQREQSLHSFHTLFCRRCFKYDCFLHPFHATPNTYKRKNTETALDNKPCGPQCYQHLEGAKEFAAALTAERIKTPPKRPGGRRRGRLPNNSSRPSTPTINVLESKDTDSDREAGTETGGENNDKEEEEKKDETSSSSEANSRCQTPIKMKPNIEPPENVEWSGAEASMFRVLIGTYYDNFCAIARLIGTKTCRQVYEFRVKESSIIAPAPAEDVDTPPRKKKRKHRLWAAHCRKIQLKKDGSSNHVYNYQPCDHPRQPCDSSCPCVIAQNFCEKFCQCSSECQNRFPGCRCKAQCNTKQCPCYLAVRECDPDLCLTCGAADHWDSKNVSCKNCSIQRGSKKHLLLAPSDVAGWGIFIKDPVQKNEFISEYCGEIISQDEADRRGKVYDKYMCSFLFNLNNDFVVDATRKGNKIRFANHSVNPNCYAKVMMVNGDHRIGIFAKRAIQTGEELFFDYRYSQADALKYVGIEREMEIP
Chain of PRC2 enzyme (Q15022 whole entry partner): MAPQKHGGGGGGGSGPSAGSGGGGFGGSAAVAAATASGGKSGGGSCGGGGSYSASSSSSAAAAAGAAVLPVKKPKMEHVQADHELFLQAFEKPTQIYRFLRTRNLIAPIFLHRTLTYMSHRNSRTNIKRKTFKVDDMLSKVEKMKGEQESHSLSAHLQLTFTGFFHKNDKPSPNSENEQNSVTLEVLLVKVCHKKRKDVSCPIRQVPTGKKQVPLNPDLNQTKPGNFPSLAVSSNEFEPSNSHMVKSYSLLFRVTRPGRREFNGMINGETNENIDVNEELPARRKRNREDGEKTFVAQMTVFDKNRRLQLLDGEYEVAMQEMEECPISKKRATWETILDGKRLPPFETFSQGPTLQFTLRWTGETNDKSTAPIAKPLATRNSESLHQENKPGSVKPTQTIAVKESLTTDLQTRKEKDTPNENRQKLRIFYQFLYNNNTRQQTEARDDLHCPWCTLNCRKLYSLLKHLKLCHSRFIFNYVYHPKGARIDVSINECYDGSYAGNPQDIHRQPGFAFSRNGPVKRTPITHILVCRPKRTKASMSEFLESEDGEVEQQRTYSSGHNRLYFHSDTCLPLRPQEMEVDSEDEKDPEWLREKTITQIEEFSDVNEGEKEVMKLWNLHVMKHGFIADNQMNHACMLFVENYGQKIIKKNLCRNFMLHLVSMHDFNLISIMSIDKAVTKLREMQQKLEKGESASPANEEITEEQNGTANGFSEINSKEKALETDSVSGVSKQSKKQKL

CC(=O)N1CC=C(c2cnc(NCc3c(F)ccc4c3CCO4)n3cnnc23)CC1 [E-Y15]
Clearance rate in vivo Clint In Vivo Extpl [1]: 64.7 mL/min
Intrinsic clearance rate in vivo Clint In Vitro [1]: 144 mL/min/gprot
Liver clearance rate Clint Hep In Vivo Extpl [1]: 15.3 mL/min
Metabolic bioavailability MF % [1]: 23.6%
half-life [1]: 0.243 h
IC50 [2]: 3 nM
Clearance rate in vivo Clint In Vivo Extpl [3]: 1280 mL/min
Intrinsic clearance rate in vivo Clint In Vitro [3]: 16.7 mL/min/gprot
Liver clearance rate Clint Hep In Vivo Extpl [3]: 691 mL/min
half-life [3]: 2.1 h
bioavailability [3]: 54%
IC50 [4]: 1.9 nM
IC50 [5]: 0.7 nM
Clearance rate in vivo Clint In Vivo Extpl [6]: 5.51 mL/min
Intrinsic clearance rate in vivo Clint In Vitro [6]: 81.6 mL/min/gprot
Liver clearance rate Clint Hep In Vivo Extpl [6]: 1.94 mL/min
Metabolic bioavailability MF % [6]: 35.3%
half-life [6]: 0.428 h
IC50 [7]: 7 nM
IC50 [8]: 5.6 nM

Fc1ccc2c(c1CNc1ncc(C3CCOCC3)c3nncn13)CCO2 [E-Y47]
Clearance rate in vivo Clint In Vivo Extpl [1]: 6.79 mL/min
Intrinsic clearance rate in vivo Clint In Vitro [1]: 15.1 mL/min/gprot
Liver clearance rate Clint Hep In Vivo Extpl [1]: 5.07 mL/min
Metabolic bioavailability MF % [1]: 74.7%
half-life [1]: 2.32 h
Clearance rate in vivo Clint In Vivo Extpl [3]: 519 mL/min
Intrinsic clearance rate in vivo Clint In Vitro [3]: 6.79 mL/min/gprot
Liver clearance rate Clint Hep In Vivo Extpl [3]: 386 mL/min
half-life [3]: 5.15 h
bioavailability [3]: 74.3%
AUC(0-t) [9]: 7.89 ± 2.43 µg·h/mL
AUC(0-inf) [9]: 7.91 ± 2.44 µg·h/mL
MRT inf [9]: 4.92 ± 0.369 h
half-life [9]: 2.56 ± 0.302 h
Cmax [9]: 1.3 ± 0.628 µg/mL
IC50 [5]: 6 nM
Clearance rate in vivo Clint In Vivo Extpl [6]: 1.17 mL/min
Intrinsic clearance rate in vivo Clint In Vitro [6]: 17.3 mL/min/gprot
Liver clearance rate Clint Hep In Vivo Extpl [6]: 0.841 mL/min
Metabolic bioavailability MF % [6]: 72.0%
half-life [6]: 2.02 h
IC50 [7]: 18 nM
IC50 [8]: 13 nM

CN1CCC(c2cnc(NCc3c(F)ccc4c3CCO4)n3cnnc23)=CC1=O [SL-E24]
IC50 [2]: 3 nM
IC50 [4]: 5.1 nM
IC50 [5]: 3 nM
IC50 [7]: 3.1 nM
IC50 [8]: 3.9 nM

Fc1ccc2c(c1CNc1ncc(C3=CCCOCC3)c3nncn13)CCO2 [SL-ZYE-07]
IC50 [2]: 5 nM
AUC(0-t) [9]: 0.891 ± 0.164 µg·h/mL
AUC(0-inf) [9]: 0.91 ± 0.174 µg·h/mL
MRT inf [9]: 4.71 ± 0.896 h
half-life [9]: 3.77 ± 1.69 h
Cmax [9]: 0.155 ± 0.0348 µg/mL
IC50 [5]: 1 nM
IC50 [7]: 25 nM
IC50 [8]: 7.3 nM

CCS(=O)(=O)N1CC=C(c2cnc(NCc3c(F)ccc4c3CCO4)n3cnnc23)CC1 [SL-ZYE-144]
IC50 [2]: 3 nM
IC50 [4]: 1.8 nM
IC50 [5]: 0.8 nM
IC50 [7]: 4 nM
IC50 [8]: 3.5 nM
